Laboratory results taken from patent US20160039880A1 (priority 2012, published 2016).
In brackets after ≈: the same amount, converted by molar mass. Like-named read-outs stand apart in the source and are kept apart here.

Legend:
[1] = molecular target: T1, Human recombinant cyclophilin A (Cyp A) (Homo sapiens, UniProt P62937);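 also: cis to trans isomerization of SUC-AAPF-pNA by 2 nM enzyme, read as absorbance at 330 nm over 300 s at 10 °C, catalytic rate corrected for uncatalyzed background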
[2] = molecular target: T1, Human recombinant cyclophilin A (Cyp A); experiment: Protease-free PPIase assay;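 also: cis to trans isomerization of SUC-AAPF-pNA by 2 nM enzyme, read as absorbance at 330 nm over 300 s at 10 °C, catalytic rate corrected for uncatalyzed background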
[3] = Water Solubility Assay (measured in pH 7.8 buffer); type: physicochemical; settings: for solubility at 18 h: kinetic from dmso stock;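 as to all read-outs here: precipitation onset detected as rise in absorbance at 650 nm across increasing concentrations, after shaking for 18 h, blank wells receiving DMSO only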
[4] = 35 mM HEPES buffer pH 7.8, 25 °C, aqueous buffer, pH 7.8 buffer, read-out: Water Solubility Assay

T1 sequence (P62937 whole entry): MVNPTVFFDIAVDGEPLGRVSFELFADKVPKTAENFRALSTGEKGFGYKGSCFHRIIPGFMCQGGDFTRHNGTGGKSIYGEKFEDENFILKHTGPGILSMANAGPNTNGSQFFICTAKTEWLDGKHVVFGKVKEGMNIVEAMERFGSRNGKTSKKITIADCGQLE

SMILES | Ki [2] | solubility at 18 h ([3]; 25 °C, pH 7.8, aqueous buffer) | solubility at 18 h [3, 4] | also measured
CC[C@H]1NC(=O)[C@@H]([C@H](O)[C@H](C)CCNCCOC)N(C)C(=O)[C@@H](C(C)C)N(C)C(=O)[C@@H](CC(C)C)N(C)C(=O)[C@@H](CC(C)C)N(C)C(=O)[C@H](C)NC(=O)[C@@H](C)NC(=O)[C@@H](CC(C)C)N(C)C(=O)[C@@H](C(C)C)NC(=O)[C@H](CC(C)C)N(C)C(=O)[C@@H](C)N(C)C1=O [Compound AF, [(3R,4R,5S)-4-Hydroxy-3-methyl-5-(methylamino)-1-(2-methoxyethylamino)-hexanoic acid]^1[(R)-methyl-Sar]^3 cyclosporin A] |  |  |  | Ki [1]: 28 nM
CC[C@H]1NC(=O)[C@@H]([C@H](O)[C@H](C)CCN(C)CC2COCCO2)N(C)C(=O)[C@@H](C(C)C)N(C)C(=O)[C@@H](CC(C)C)N(C)C(=O)[C@@H](CC(C)C)N(C)C(=O)[C@H](C)NC(=O)[C@@H](C)NC(=O)[C@@H](CC(C)C)N(C)C(=O)[C@@H](C(C)C)NC(=O)[C@H](CC(C)C)N(C)C(=O)[C@@H](C)N(C)C1=O (stereo partly drawn) [Compound AJ, [(3R,4R,5S)-4-Hydroxy-3-methyl-5-(methylamino)-1-(1,4-dioxan-2-ylmethyl)methylamino-hexanoic acid]^1[(R)-methyl-Sar]^3 cyclosporin A] |  |  |  | Ki [1]: 12 nM
CCC1NC(=O)C(C(O)C(C)CCNCCc2c[nH]cn2)N(C)C(=O)C(C(C)C)N(C)C(=O)C(CC(C)C)N(C)C(=O)C(CC(C)C)N(C)C(=O)C(C)NC(=O)C(C)NC(=O)C(CC(C)C)N(C)C(=O)C(C(C)C)NC(=O)C(CC(C)C)N(C)C(=O)C(C)N(C)C1=O [Compound AK, [(3R,4R,5S)-4-Hydroxy-3-methyl-5-(methylamino)-1-(2-{1H-imidazol-4-yl}-ethylamino)-hexanoic acid]^1[(R)-methyl-Sar]^3 cyclosporin A] |  |  |  | Ki [1]: 42 nM
CC[C@H]1NC(=O)[C@@H]([C@H](O)[C@H](C)CCN(C)CCC(F)(F)F)N(C)C(=O)[C@@H](C(C)C)N(C)C(=O)[C@@H](CC(C)C)N(C)C(=O)[C@@H](CC(C)C)N(C)C(=O)[C@H](C)NC(=O)[C@@H](C)NC(=O)[C@@H](CC(C)C)N(C)C(=O)[C@@H](C(C)C)NC(=O)[C@H](CC(C)C)N(C)C(=O)[C@@H](C)N(C)C1=O [Compound DN, [(3R,4R,5S)-4-Hydroxy-3-methyl-5-(methylamino)-1-({3,3,3-trifluoropropyl}-methyl-amino)-hexanoic acid]^1[(R)-methyl-Sar]^3 cyclosporin A] | 5.5 nM | 25 to 50 µM (≈ 32.9 to 65.8 µg/mL) |  | 
CC[C@H]1NC(=O)[C@@H]([C@H](O)[C@H](C)CCN(C)Cc2cc(C(F)(F)F)nn2C)N(C)C(=O)[C@@H](C(C)C)N(C)C(=O)[C@@H](CC(C)C)N(C)C(=O)[C@@H](CC(C)C)N(C)C(=O)[C@H](C)NC(=O)[C@@H](C)NC(=O)[C@@H](CC(C)C)N(C)C(=O)[C@@H](C(C)C)NC(=O)[C@H](CC(C)C)N(C)C(=O)[C@@H](C)N(C)C1=O [Compound DO, [(3R,4R,5S)-4-Hydroxy-3-methyl-5-(methylamino)-1-({1-methyl-3-trifluoromethyl-2H-pyrazol-5-ylmethyl}-methylamino)-hexanoic acid]^1[(R)-methyl-Sar]^3 cyclosporin A] | 2.8 nM |  | 10 to 25 µM (≈ 13.8 to 34.5 µg/mL) | 
CC[C@H]1NC(=O)[C@@H]([C@H](O)[C@H](C)CCN2CCOc3ccccc32)N(C)C(=O)[C@@H](C(C)C)N(C)C(=O)[C@@H](CC(C)C)N(C)C(=O)[C@@H](CC(C)C)N(C)C(=O)[C@H](C)NC(=O)[C@@H](C)NC(=O)C(CC(C)C)N(C)C(=O)[C@@H](C(C)C)NC(=O)[C@H](CC(C)C)N(C)C(=O)[C@@H](C)N(C)C1=O (stereo partly drawn) [Compound DX, [(3R,4R,5S)-1-(2,3-Dihydro-benzo[1,4]oxazin-4-yl)-4-Hydroxy-3-methyl-5-(methylamino)-hexanoic acid]^1[(R)-methyl-Sar]^3 cyclosporin A] | 5.2 nM |  | 25 to 50 µM (≈ 33.1 to 66.2 µg/mL) | 
CC[C@H]1NC(=O)[C@@H]([C@H](O)[C@H](C)CCN2CCOC(c3ccccc3)C2)N(C)C(=O)[C@@H](C(C)C)N(C)C(=O)[C@@H](CC(C)C)N(C)C(=O)[C@@H](CC(C)C)N(C)C(=O)[C@H](C)NC(=O)[C@@H](C)NC(=O)C(CC(C)C)N(C)C(=O)[C@@H](C(C)C)NC(=O)[C@H](CC(C)C)N(C)C(=O)[C@@H](C)N(C)C1=O (stereo partly drawn) [Compound DZ, [(3R,4R,5S)-4-Hydroxy-3-methyl-5-(methylamino)-1-(2-phenyl-morpholin-4-yl)-hexanoic acid]^1[(R)-methyl-Sar]^3 cyclosporin A] | 6 nM |  | 25 to 50 µM (≈ 33.8 to 67.6 µg/mL) | 
CC[C@H]1NC(=O)[C@@H]([C@H](O)[C@H](C)CCN2CCOCC2)N(C)C(=O)[C@@H](C(C)C)N(C)C(=O)[C@@H](CC(C)C)N(C)C(=O)[C@@H](CC(C)C)N(C)C(=O)[C@H](C)NC(=O)[C@@H](C)NC(=O)[C@@H](CC(C)C)N(C)C(=O)[C@@H](C(C)C)NC(=O)[C@H](CC(C)C)N(C)C(=O)[C@@H](SC(C)C)N(C)C1=O [Compound I, [(3R,4R,5S)-4-Hydroxy-3-methyl-5-(methylamino)-1-N-morpholino-hexanoic acid]^1[(S)-thio-isopropyl-Sar]^3 cyclosporin A] | 7.7 nM | 25 to 50 µM (≈ 33.4 to 66.8 µg/mL) |  | 
CCC1NC(=O)C(C(O)C(C)CCN(CC)CC)N(C)C(=O)C(C(C)C)N(C)C(=O)C(CC(C)C)N(C)C(=O)C(CC(C)C)N(C)C(=O)C(C)NC(=O)C(C)NC(=O)C(CC(C)C)N(C)C(=O)C(C(C)C)NC(=O)C(CC(C)C)N(C)C(=O)C(C)N(C)C1=O [Compound M, [(3R,4R,5S)-4-hydroxy-3-methyl-5-(methylamino)-1-N-diethylamino-hexanoic acid]^1[(R)-Me-Sar]^3 cyclosporin A] |  |  |  | Ki ([2]; read-out: Protease-free PPIase Assay Ki, cyclophilin A, 10 °C): 90 nM; Water Solubility Assay, concentration at which the compound remains in solution ([3]; 35 mM HEPES pH 7.8, 1% DMSO, 25 °C, 18 h): 75 to 100 µM

More lines, main results first:

Ki [2] | solubility at 18 h ([3]; 25 °C, pH 7.8, aqueous buffer) | solubility at 18 h [3, 4] | SMILES | also measured
12 nM | 75 to 100 µM (≈ 97.8 to 130 µg/mL) |  | CC[C@H]1NC(=O)[C@@H]([C@H](O)[C@H](C)CCN2CCOC(C)(C)C2)N(C)C(=O)[C@@H](C(C)C)N(C)C(=O)[C@@H](CC(C)C)N(C)C(=O)[C@@H](CC(C)C)N(C)C(=O)[C@H](C)NC(=O)[C@@H](C)NC(=O)C(CC(C)C)N(C)C(=O)[C@@H](C(C)C)NC(=O)[C@H](CC(C)C)N(C)C(=O)[C@@H](C)N(C)C1=O (stereo partly drawn) [Compound DS, [(3R,4R,5S)-1-(3,3-Dimethyl-morpholin-4-yl)-4-hydroxy-3-methyl-5-(methylamino)-hexanoic acid]^1[(R)-methyl-Sar]^3 cyclosporin A] | 
4.7 nM | > 100 µM |  | CC[C@H]1NC(=O)[C@@H]([C@H](O)[C@H](C)CCN2CCOC[C@H]2C)N(C)C(=O)[C@@H](C(C)C)N(C)C(=O)[C@@H](CC(C)C)N(C)C(=O)[C@@H](CC(C)C)N(C)C(=O)[C@H](C)NC(=O)[C@@H](C)NC(=O)C(CC(C)C)N(C)C(=O)[C@@H](C(C)C)NC(=O)[C@H](CC(C)C)N(C)C(=O)[C@@H](C)N(C)C1=O (stereo partly drawn) [Compound DT, [(3R,4R,5S)-4-Hydroxy-3-methyl-5-methylamino-((R)-3-methyl-morpholin-4-yl)-hexanoic acid]^1[(R)-methyl-Sar]^3 cyclosporin A] | 
9.2 nM |  | > 100 µM | CC[C@H]1NC(=O)[C@@H]([C@H](O)[C@H](C)CCN2CCn3cnnc3C2)N(C)C(=O)[C@@H](C(C)C)N(C)C(=O)[C@@H](CC(C)C)N(C)C(=O)[C@@H](CC(C)C)N(C)C(=O)[C@H](C)NC(=O)[C@@H](C)NC(=O)C(CC(C)C)N(C)C(=O)[C@@H](C(C)C)NC(=O)[C@H](CC(C)C)N(C)C(=O)[C@@H](C)N(C)C1=O (stereo partly drawn) [Compound DU, [(3R,4R,5S)-1-(5,6-Dihydro-8H-[1,2,4]triazolo[4,3-a]pyrazin-7-yl)-4-Hydroxy-3-methyl-5-(methylamino)-hexanoic acid]^1[(R)-methyl-Sar]^3 cyclosporin A] | 
4.3 nM | 50 to 75 µM (≈ 65.1 to 97.6 µg/mL) |  | CC[C@H]1NC(=O)[C@@H]([C@H](O)[C@H](C)CCN2CC3CCC(C2)O3)N(C)C(=O)[C@@H](C(C)C)N(C)C(=O)[C@@H](CC(C)C)N(C)C(=O)[C@@H](CC(C)C)N(C)C(=O)[C@H](C)NC(=O)[C@@H](C)NC(=O)C(CC(C)C)N(C)C(=O)[C@@H](C(C)C)NC(=O)[C@H](CC(C)C)N(C)C(=O)[C@@H](C)N(C)C1=O (stereo partly drawn) [Compound DV, [(3R,4R,5S)-4-Hydroxy-3-methyl-5-(methylamino)-1-(8-oxa-3-aza-bicyclo[3.2.1]oct-3-yl)-hexanoic acid]^1[(R)-methyl-Sar]^3 cyclosporin A] | 
6.5 nM | > 100 µM |  | CC[C@H]1NC(=O)[C@@H]([C@H](O)[C@H](C)CCN2CCOC[C@@H]2C)N(C)C(=O)[C@@H](C(C)C)N(C)C(=O)[C@@H](CC(C)C)N(C)C(=O)[C@@H](CC(C)C)N(C)C(=O)[C@H](C)NC(=O)[C@@H](C)NC(=O)C(CC(C)C)N(C)C(=O)[C@@H](C(C)C)NC(=O)[C@H](CC(C)C)N(C)C(=O)[C@@H](C)N(C)C1=O (stereo partly drawn) [Compound DW, [(3R,4R,5S)-4-Hydroxy-3-methyl-5-(methylamino)-1-((S)-3-methyl-morpholin-4-yl)-hexanoic acid]^1[(R)-methyl-Sar]^3 cyclosporin A] | 
13 nM |  | > 100 µM | CC[C@H]1NC(=O)[C@@H]([C@H](O)[C@H](C)CCN2CCC3(CC2)OCCO3)N(C)C(=O)[C@@H](C(C)C)N(C)C(=O)[C@@H](CC(C)C)N(C)C(=O)[C@@H](CC(C)C)N(C)C(=O)[C@H](C)NC(=O)[C@@H](C)NC(=O)C(CC(C)C)N(C)C(=O)[C@@H](C(C)C)NC(=O)[C@H](CC(C)C)N(C)C(=O)[C@@H](C)N(C)C1=O (stereo partly drawn) [Compound DY, [(3R,4R,5S)-1-(1,4-Dioxa-8-aza-spiro[4.5]dec-8-yl)-4-Hydroxy-3-methyl-5-(methylamino)-hexanoic acid]^1[(R)-methyl-Sar]^3 cyclosporin A] | 
4.5 nM | > 100 µM |  | CC[C@H]1NC(=O)[C@@H]([C@H](O)[C@H](C)CCN2CCOCC2)N(C)C(=O)[C@@H](C(C)C)N(C)C(=O)[C@@H](CC(C)C)N(C)C(=O)[C@@H](CC(C)C)N(C)C(=O)[C@H](C)NC(=O)[C@@H](C)NC(=O)[C@@H](CC(C)C)N(C)C(=O)[C@@H](C(C)C)NC(=O)[C@H](CC(C)C)N(C)C(=O)[C@@H](CO)N(C)C1=O [Compound V, [(3R,4R,5S)-4-Hydroxy-3-methyl-5-(methylamino)-1-N-morpholino-hexanoic acid]^1[(R)-hydroxymethyl-Sar]^3 cyclosporin A] | 
